Measurements: paper PMC10448230 (RSC Advances, 2023)
Read-outs that look alike come from different tables or passages of the source.

How the values were obtained:
[1] = molecular target: electric eel acetylcholinesterase (type-IV-S) (Electrophorus electricus, UniProt O42275); assay: biochemical; format: biochemical
[2] = molecular target: equine butyrylcholinesterase (Equus caballus, UniProt P81908); assay: Butyrylcholinesterase inhibition; format: biochemical
Chain of equine butyrylcholinesterase (P81908 whole entry): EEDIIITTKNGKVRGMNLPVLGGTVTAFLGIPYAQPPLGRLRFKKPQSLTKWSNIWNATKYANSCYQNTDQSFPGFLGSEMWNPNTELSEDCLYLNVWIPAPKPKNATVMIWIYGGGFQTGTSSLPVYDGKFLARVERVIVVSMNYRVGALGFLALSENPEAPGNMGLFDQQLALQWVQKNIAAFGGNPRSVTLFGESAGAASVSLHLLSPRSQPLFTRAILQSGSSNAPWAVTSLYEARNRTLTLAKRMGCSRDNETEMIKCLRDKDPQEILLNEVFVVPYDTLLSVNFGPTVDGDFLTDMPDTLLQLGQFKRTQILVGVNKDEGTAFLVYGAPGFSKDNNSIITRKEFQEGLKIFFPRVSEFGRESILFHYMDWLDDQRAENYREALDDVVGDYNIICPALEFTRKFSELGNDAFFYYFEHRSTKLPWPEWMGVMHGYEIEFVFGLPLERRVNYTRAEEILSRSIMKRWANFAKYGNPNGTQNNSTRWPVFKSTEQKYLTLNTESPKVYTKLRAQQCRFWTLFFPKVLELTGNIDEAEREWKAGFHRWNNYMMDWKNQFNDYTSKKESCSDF

Chain of electric eel acetylcholinesterase (type-IV-S) (O42275 24-633): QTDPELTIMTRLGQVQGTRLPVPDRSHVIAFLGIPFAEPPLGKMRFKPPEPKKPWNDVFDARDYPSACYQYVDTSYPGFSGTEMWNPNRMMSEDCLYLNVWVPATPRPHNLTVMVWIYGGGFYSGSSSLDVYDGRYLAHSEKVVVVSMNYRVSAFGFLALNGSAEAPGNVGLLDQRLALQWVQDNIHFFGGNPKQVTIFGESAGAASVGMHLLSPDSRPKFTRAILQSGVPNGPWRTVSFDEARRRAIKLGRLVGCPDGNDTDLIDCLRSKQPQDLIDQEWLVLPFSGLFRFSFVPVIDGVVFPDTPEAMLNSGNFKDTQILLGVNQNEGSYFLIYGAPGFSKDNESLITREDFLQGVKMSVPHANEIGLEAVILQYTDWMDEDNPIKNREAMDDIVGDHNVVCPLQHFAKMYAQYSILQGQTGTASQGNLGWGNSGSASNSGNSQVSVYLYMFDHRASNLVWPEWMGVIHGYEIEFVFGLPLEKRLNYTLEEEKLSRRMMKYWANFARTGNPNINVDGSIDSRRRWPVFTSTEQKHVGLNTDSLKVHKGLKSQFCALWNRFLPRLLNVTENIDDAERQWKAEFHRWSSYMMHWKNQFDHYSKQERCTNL

Row | Molecule | IC50 [1] [µM] | IC50 [2] [µM] | IC50 ([1]; read-out: AChE IC50 (μM) ± SD, NA = not active, galantamine as positive control) [µM] | IC50 ([2]; read-out: BChE IC50 (μM) ± SD, NA = not active, galantamine as positive control) [µM]
1 | CCC/C=N/NC(=O)COc1ccc(Sc2ccc(OCC(=O)N/N=C/CCC)cc2)cc1 [4y, 2,2′-((Thiobis(4,1-phenylene))bis(oxy))bis(N′-((E)-butylidene)acetohydrazide)] | 122.6 ± 0.943 | 101.1 ± 0.938 |  | 
2 | 2,2′-((Thiobis(4,1-phenylene))bis(oxy))bis(N′-((E)-4-fluorobenzylidene)acetohydrazide) [4s] |  |  | 91.5 ± 0.615 | 36.4 ± 0.702
3 | CCCC/C=N/NC(=O)COc1ccc(Sc2ccc(OCC(=O)N/N=C/CCCC)cc2)cc1 [4x, 2,2′-((Thiobis(4,1-phenylene))bis(oxy))bis(N′-((E)-pentylidene)acetohydrazide)] | 186.3 ± 0.876 | 103.1 ± 0.877 |  | 
